The values below come from US20150133456A1, “FLUOROERGOLINE DERIVATIVES AND USES THEREOF” (MAP PHARMACEUTICALS, INC., priority 2012, published 2015).

One data set deals with T1, D2 receptor (Homo sapiens, UniProt P14416).
T1 construct: expressed in transfected cells
Put plainly: Agonist activity at the D2 receptor. The following applies: read-out: EC50, D2 receptor agonism. In kind it is cell-based. On the procedure: The assay was performed analogously to the assay described in Example 4.

A short description of data set [1]: Metabolism in human liver microsomes. The following applies: 1 μM, 0.2 mg protein/mL, 0 to 60 minutes. The method, then: Metabolism of dihydroergotamine (DHE) and 2-CF3 DHE was evaluated in human liver microsomes. DHE mesylate and 2-CF3 DHE mesylate (1 μM each) were incubated separately with human liver microsomes (0.2 mg protein/mL) in triplicate at 37° C. in 0.2 mL (final volume) incubation buffer (50 mM potassium phosphate buffer, pH 7.4, 3 mM MgCl2 and 1 mM EDTA, pH7.4) with or without cofactor, NADPH-generating system. The NADPH-generating system consisted of 1 mM NADP, pH 7.4, 5 mM glucose-6-phosphate, pH 7.4 and 1 unit/mL glucose-6-phosphate dehydrogenase. DHE was added to the incubation mixtures in water. 2-CF3-DHE was added to incubation mixtures in 50:50 (v:v) acetonitrile:water. A low level of acetonitrile in the incubation was maintained to avoid any solvent effects on enzyme activity (typically at 0.5% or lower). Reactions were initiated by the addition of the NADPH-generating system and were terminated at 0, 15, 30 and 60 minutes after initiation by the addition of […], of stop reagent (acetonitrile) containing two internal standards (4′-hydroxydiclofenac-d4 and 1′-hydroxymidazolam-d4, 200 and 50 ng/mL in the final stopped incubation, respectively). The samples were then centrifuged and the supernatant fractions were analyzed by LC/MS/MS to quantify the formation of 8′-OH-DHE (metabolite) in the DHE samples and DHE and 8′-OH-DHE in the 2-CF3-DHE samples.
On the technique in general: Liver microsomes are vesicles of endoplasmic reticulum, rich in cytochrome P450 enzymes.

The target of data set [2] is T2, human 5-HT2B receptor (Homo sapiens, UniProt P41595).
T2 construct: host or cells: CHO-K1 coexpressing mitochondrial apoaequorin
T2 sequence (P41595 whole entry): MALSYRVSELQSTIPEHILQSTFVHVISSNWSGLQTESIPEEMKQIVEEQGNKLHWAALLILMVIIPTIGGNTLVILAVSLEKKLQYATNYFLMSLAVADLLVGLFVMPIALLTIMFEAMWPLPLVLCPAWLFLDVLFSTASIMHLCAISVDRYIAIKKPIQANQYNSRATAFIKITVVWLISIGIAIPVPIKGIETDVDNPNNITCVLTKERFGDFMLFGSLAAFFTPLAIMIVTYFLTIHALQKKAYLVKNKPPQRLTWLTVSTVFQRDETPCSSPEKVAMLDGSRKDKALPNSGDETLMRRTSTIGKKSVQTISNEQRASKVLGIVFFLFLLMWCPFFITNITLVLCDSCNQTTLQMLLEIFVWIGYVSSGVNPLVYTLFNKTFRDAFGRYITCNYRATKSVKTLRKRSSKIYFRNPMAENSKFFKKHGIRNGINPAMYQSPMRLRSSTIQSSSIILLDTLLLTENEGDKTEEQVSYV
Put plainly: Aequorin assay, agonist activity at 5-HT2B. In kind it is cell-based. The following applies: reference agonist; read-out: EC50, 5-HT2B agonism. On the procedure:
Percentage activation values were determined for 2-CF3 dihydroergotamine at the 5-HT2B receptor.

The target in data set [3] is T2, human 5-HT2B receptor. Put plainly: Aequorin assay, antagonist activity at 5-HT2B. In kind it is cell-based. The following applies: reference agonist at its EC80; read-out: IC50, 5-HT2B antagonism. The method, then:
Percentage inhibition values were determined for 2-CF3 dihydroergotamine on the 5-HT2B receptor.

Each structure is given as a SMILES string.

T1 sequence (P14416 whole entry): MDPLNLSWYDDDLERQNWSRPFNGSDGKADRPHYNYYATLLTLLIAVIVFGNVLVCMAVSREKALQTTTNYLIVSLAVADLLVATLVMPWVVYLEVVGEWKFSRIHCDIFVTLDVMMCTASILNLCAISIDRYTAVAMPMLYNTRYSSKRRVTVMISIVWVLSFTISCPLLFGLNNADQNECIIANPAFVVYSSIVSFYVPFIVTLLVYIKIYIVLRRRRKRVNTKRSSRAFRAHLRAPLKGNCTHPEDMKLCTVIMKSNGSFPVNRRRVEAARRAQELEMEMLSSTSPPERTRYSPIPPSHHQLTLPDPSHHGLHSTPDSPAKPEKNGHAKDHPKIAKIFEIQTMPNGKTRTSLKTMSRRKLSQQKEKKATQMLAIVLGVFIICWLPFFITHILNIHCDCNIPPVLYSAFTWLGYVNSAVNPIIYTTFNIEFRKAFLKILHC

As usually defined, the EC50 is the concentration needed to bring the measured effect to its halfway point. On to `CN1C[C@H](C(=O)N[C@]2(C)O[C@@]3(O)[C@@H]4CCCN4C(=O)[C@H](Cc4ccccc4)N3C2=O)C[C@@H]2c3cccc4[nH]cc(c34)C[C@H]21` [dihydroergotamine, reference compound], for which the EC50 at D2 receptor was 8.35 nM. Moreover, the “metabolism by human liver microsomes in the presence of NADPH” value in data set [1] was “extensively metabolized”.

Consider `CC(N)Cc1c[nH]c2ccc(O)cc12` (stereo not drawn) [α-methyl-5-HT, reference compound], for which the EC50 at human 5-HT2B receptor [2] came out at 1.01 nM.

The IC50 is the point on the concentration scale where inhibition reaches its midpoint. As to `Cc1cc(NC(=O)Nc2ccc3c(ccn3C)c2)sn1` [SB204741, reference compound], at human 5-HT2B receptor [3], the IC50 is 28.8 nM.
